Data taken from patent US4368194A, “Pharmacologically active amine boranes” (The United States of America as represented by the …, priority 1981, dated 1983).

Key:
[1] = test system: cAMP levels in PMNs; assay: Cyclic-3',5'-adenosine monophosphate levels (cAMP) in PMNs; type: cell-based; settings: 1 h
Procedure, shortened: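 Glycogen-elicited peritoneal neutrophils in MEM with 10% FCS, pH 7.4, exposed to test drugs at 5μ moles for 1 hr at 37° C; stopped with 6% trichloroacetic acid. cAMP measured by radioimmunoassay with 3H-cAMP tracer, expressed as p mole/10^7 PMNs.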

[2] = test system: Acid phosphatase; assay: Lysosomal free acid phosphatase activity, liver homogenate; type: biochemical, rats; settings: 5 μmoles, in vitro; 20 min
Procedure, shortened: (§1)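 Rat (Sprague Dawley) liver 10% homogenate in 0.25 M sucrose/0.001 M EDTA pH 7.2, incubated 20 min with 5 μmoles test drug in 1% CMC. Acid phosphatase: 0.1 M β-glycerol phosphate, acetate pH 5.0, inorganic phosphate read; cathepsin: 2% azocasein, pH 5.0, acid-soluble fragments at 366 nm. Percent free activity vs. total (0.02% detergent-released).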

[3] = test system: Sprague Dawley rats; assay: Anti-pyretic screen; type: in vivo
Procedure: Sprague Dawley rats (about 200 g) were administered 2 ml of a 44% solution of Baker's yeast subcutaneously (see Roszkowski et al., supra) 18 hr prior to the injection of drugs at 2.5 or 5 mg/kg intraperitoneally resulting in an elevation of 3.46° F. Alternatively, rats were administered 0.25 mg killed and dried Mycobacterium butyricum (Difco) (see Randall et al., Arch int Pharmacodyn et De Ther, 220, 94 1976) subcutaneously prior to the administration of drugs. Rectal temperatures were taken immediately prior to and 2, 4, and 6 hr after drug administration.

[4] = test system: carrageenan induced edema in mouse foot pads; assay: Anti-inflammatory screen (carrageenan induced foot edema); type: in vivo, mice
Procedure, shortened: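 Male CF1 mice (~30 g) given 10 mg/kg i.p. in 0.05% polysorbate 80-water, 3 hr and 30 min before 0.05 ml 2% carrageenan injected into the right hind plantar surface, with saline in the left foot as baseline. Feet excised at the ankle after 3 hr and weight increase measured.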

[5] = test system: CF1 male mice; assay: Writhing reflex (acetic acid); type: in vivo
Procedure, shortened: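 CF1 male mice were dosed with test drug at 20 mg/kg i.p. 20 min before 0.5 ml of 0.6% acetic acid. Abdominal stretches with hind-limb extension were counted over 10 min, starting 5 min after acid.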

[6] = test system: Acid phosphatase; assay: Lysosomal free acid phosphatase activity, PMNs; type: cell-based; settings: 5 μmoles
Procedure, shortened: (§2)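 Glycogen-elicited peritoneal PMNs, or liver homogenate, incubated with 5 μmoles test drug in 1% CMC for 60 or 20 min at pH 5.0. Acid phosphatase: 0.1 M β-glycerol phosphate, inorganic phosphate read; cathepsin: 2% azocasein, acid-soluble peptides at 366 nm. Free activity expressed as percent of detergent-released total.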

[7] = target: T1, prostaglandin synthetase from beef seminal vesicle (Bos taurus, UniProt O62664); assay: Prostaglandin synthetase activity; type: biochemical; settings: 10^-6 M
T1 construct: purchased; host or cells: beef seminal vesicle
T1 sequence (O62664 25-600): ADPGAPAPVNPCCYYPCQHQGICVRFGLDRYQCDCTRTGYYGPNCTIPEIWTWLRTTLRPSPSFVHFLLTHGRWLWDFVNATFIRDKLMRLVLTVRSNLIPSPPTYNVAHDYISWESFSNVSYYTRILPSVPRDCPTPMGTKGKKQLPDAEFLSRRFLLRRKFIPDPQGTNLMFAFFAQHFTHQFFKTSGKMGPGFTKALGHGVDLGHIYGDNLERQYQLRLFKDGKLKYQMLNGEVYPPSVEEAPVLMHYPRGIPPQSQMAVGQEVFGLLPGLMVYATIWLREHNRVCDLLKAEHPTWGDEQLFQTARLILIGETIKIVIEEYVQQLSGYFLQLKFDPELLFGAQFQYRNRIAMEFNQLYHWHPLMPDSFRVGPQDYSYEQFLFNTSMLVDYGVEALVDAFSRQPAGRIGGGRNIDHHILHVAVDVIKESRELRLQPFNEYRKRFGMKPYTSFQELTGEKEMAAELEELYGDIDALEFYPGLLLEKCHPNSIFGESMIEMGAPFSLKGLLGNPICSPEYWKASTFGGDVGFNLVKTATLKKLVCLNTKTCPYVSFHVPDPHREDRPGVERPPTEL
Procedure: After 1 hr at 37° C. the reaction was stopped with 1 N HCl and extracted with ethyl ether and evaporated. […] The plates were dried and developed in iodine vapor and with the use of prostaglandin standards the appropriate areas were scraped and counted for ^3 H content. Indometacin was used as a standard at 10^-4 M concentration. Test drugs were used at 10^-6 M.

[8] = test system: liver mitochondria; assay: Oxidative phosphorylation, α-ketoglutarate as substrate; type: biochemical, rats; settings: 5 μmoles
Procedure, shortened: (§3)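 Basal and ADP-stimulated respiration of 10% liver homogenates, with succinate (90 μmoles) or α-ketoglutarate (60 μmoles) as substrate, in sucrose/KCl/K2HPO4 medium. Test compounds at 5 μmoles in 1% CMC in 1.8 ml total. Rate given as μl O2 consumed/hr/mg wet liver weight.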

[9] = test system: Sprague Dawley rats; assay: Red and white blood cell counts after 3 weeks dosing; type: in vivo; settings: dosing for three weeks intraperitoneally, rats
Text: Hematocrits were also obtained.

[10] = test system: Male Sprague Dawley rats; assay: Chronic adjuvant arthritic screen; type: in vivo
Procedure: Male Sprague Dawley rats (about 160 g) were injected at the base of the tail with 0.2 ml of solution of killed and dried Mycobacterium butyricum and digitonin in mineral oil (see Waksman et al., J. Immunol., 85, 403 1960). Test drugs were administered intraperitoneally commencing on day 3 through day 20 at 2.5 mg/kg/day. Animals were sacrificed on day 21, and the feet were excised and weighed.

[11] = test system: liver mitochondria; assay: Oxidative phosphorylation, succinate as substrate; type: biochemical, rats; settings: 5 μmoles
Procedure, shortened: as §3

[12] = test system: Cathepsin; assay: Lysosomal free cathepsin activity, liver homogenate; type: biochemical, rats; settings: 5 μmoles
Procedure, shortened: as §1

[13] = test system: Cathepsin; assay: Lysosomal free cathepsin activity, PMNs; type: cell-based; settings: 5 μmoles, in vitro; 60 min
Procedure, shortened: as §2

C[N+](C)(C)[BH2-]C#N [Compound V, trimethylamine-cyanoborane]
activity at 5 µmol ([1]; pH 7.4, read-out: PMNs cAMP Level): 245% | activation at 5 µmol ([1]; read-out: increase of cyclic adenosine monophosphate levels in PMNs): 145% | Liver % Free Acid Phosphatase Activity, pH5 [2]: 69 ± 4 % Control | inhibition of elevated body temperature ([3]; 5 mg/kg): no inhibition | inhibition of elevated body temperature ([3]; 10 mg/kg): no inhibition | Anti-inflammatory Screen ([4]; 10 mg/kg × 2 intraperitoneally, mice): 42 % Control | inhibition of the carrageenan induced edema in mouse foot pads ([4]; text summary of Table II): at least 50% | Writhing Reflex ([5]; 20 mg/kg intraperitoneally, mice): 18 % Control | inhibition of the writhing reflex ([5]; text summary of Table II): 80% | inhibition of free acid phosphatase activity in PMNs [6]: 65% | PMNs % Free Acid Phosphatase Activity, pH5 ([6]; in vitro, 60 min): 35 ± 5 % Control | inhibition at 1 µM ([7]; read-out: inhibition of prostaglandin synthesis): > 30% | activity at 1 µM ([7]; 1 h, read-out: Prostaglandin Synthesis): 59 ± 6% | both states 3 and 4 respiration with α-ketoglutarate [8]: inhibited | Oxidative Phosphorylation α Ketoglutarate State 3 ([8]; ADP stimulated respiration): 42 ± 9 % Control | Oxidative Phosphorylation α Ketoglutarate State 4 ([8]; basal respiration): 85 ± 21 % Control | alteration of the red blood or white blood cell count/cu mm [9]: no alteration | inhibition in the rat induced arthritic screen ([10]; 1.25 mg/kg/day intraperitoneally): 75% | inhibition in the rat induced arthritic screen ([10]; 5 mg/kg/day intraperitoneally): 100% | inhibition in the rat induced arthritic screen ([10]; 10 mg/kg/day intraperitoneally): 100% | Oxidative Phosphorylation Succinate State 3 ([11]; ADP stimulated respiration): 51 ± 20 % Control | Oxidative Phosphorylation Succinate State 4 ([11]; basal respiration): 133 ± 20 % Control | inhibition of free proteolytic cathepsin activity of liver [12]: 100% | Liver % Free Cathepsin Activity, pH5 ([12]; in vitro, 20 min): 0 ± 2 % Control | PMNs % Free Cathespin Activity, pH5 [13]: 4 ± 2 % Control
